Numbers after ± are expanded uncertainties.
Assay: molar heat capacity at constant pressure; xn = mol fraction of the nth substance listed
Details: 101.3 kPa, Liquid, Small sample (50 mg) DSC

Compound: CCC(C)(C)O [2-methylbutan-2-ol] + CCCCCCC
- molar heat capacity at constant pressure (336.14 K, x1 = 0.1): 252.29 ± 3.9 J/K/mol
- molar heat capacity at constant pressure (336.14 K, x1 = 0.1547): 260.02 ± 4 J/K/mol
- molar heat capacity at constant pressure (336.14 K, x1 = 0.1999): 265.26 ± 4.1 J/K/mol
- molar heat capacity at constant pressure (336.14 K, x1 = 0.2993): 273.56 ± 4.2 J/K/mol
- molar heat capacity at constant pressure (336.14 K, x1 = 0.4051): 279.11 ± 4.3 J/K/mol
- molar heat capacity at constant pressure (336.14 K, x1 = 0.4986): 282.65 ± 4.4 J/K/mol
- molar heat capacity at constant pressure (336.14 K, x1 = 0.5981): 285.05 ± 4.4 J/K/mol
- molar heat capacity at constant pressure (336.14 K, x1 = 0.7015): 286.5 ± 4.4 J/K/mol
- molar heat capacity at constant pressure (336.14 K, x1 = 0.8023): 286.51 ± 4.4 J/K/mol
- molar heat capacity at constant pressure (336.14 K, x1 = 0.9139): 285.7 ± 4.4 J/K/mol
- molar heat capacity at constant pressure (336.14 K, x1 = 0.9609): 284.91 ± 4.4 J/K/mol
- molar heat capacity at constant pressure (337.15 K, x1 = 0.0061): 240.08 ± 3.7 J/K/mol
- molar heat capacity at constant pressure (337.15 K, x1 = 0.0249): 241 ± 3.7 J/K/mol
- molar heat capacity at constant pressure (337.15 K, x1 = 0.0494): 244 ± 3.8 J/K/mol
- molar heat capacity at constant pressure (337.15 K, x1 = 0.1): 252.41 ± 3.9 J/K/mol
- molar heat capacity at constant pressure (337.15 K, x1 = 0.1547): 260.16 ± 4 J/K/mol
- molar heat capacity at constant pressure (337.15 K, x1 = 0.1999): 265.46 ± 4.1 J/K/mol
- molar heat capacity at constant pressure (337.15 K, x1 = 0.2993): 273.86 ± 4.2 J/K/mol
- molar heat capacity at constant pressure (337.15 K, x1 = 0.4051): 279.59 ± 4.3 J/K/mol
- molar heat capacity at constant pressure (337.15 K, x1 = 0.4986): 283.2 ± 4.4 J/K/mol
- molar heat capacity at constant pressure (337.15 K, x1 = 0.5981): 285.63 ± 4.4 J/K/mol
- molar heat capacity at constant pressure (337.15 K, x1 = 0.7015): 287.22 ± 4.5 J/K/mol
- molar heat capacity at constant pressure (337.15 K, x1 = 0.8023): 287.25 ± 4.5 J/K/mol
- molar heat capacity at constant pressure (337.15 K, x1 = 0.9139): 286.44 ± 4.4 J/K/mol
- molar heat capacity at constant pressure (337.15 K, x1 = 0.9609): 285.69 ± 4.4 J/K/mol
- molar heat capacity at constant pressure (338.14 K, x1 = 0.0061): 240.6 ± 3.7 J/K/mol
- molar heat capacity at constant pressure (338.14 K, x1 = 0.0249): 241.26 ± 3.7 J/K/mol
- molar heat capacity at constant pressure (338.14 K, x1 = 0.0494): 244.22 ± 3.8 J/K/mol
- molar heat capacity at constant pressure (338.14 K, x1 = 0.1): 252.49 ± 3.9 J/K/mol
- molar heat capacity at constant pressure (338.14 K, x1 = 0.2993): 274.14 ± 4.2 J/K/mol
- molar heat capacity at constant pressure (338.14 K, x1 = 0.4051): 280.08 ± 4.3 J/K/mol
- molar heat capacity at constant pressure (338.14 K, x1 = 0.4986): 283.63 ± 4.4 J/K/mol
- molar heat capacity at constant pressure (338.14 K, x1 = 0.5981): 286.18 ± 4.4 J/K/mol
- molar heat capacity at constant pressure (338.14 K, x1 = 0.7015): 287.86 ± 4.5 J/K/mol
- molar heat capacity at constant pressure (338.14 K, x1 = 0.8023): 287.94 ± 4.5 J/K/mol
- molar heat capacity at constant pressure (338.14 K, x1 = 0.9139): 287.19 ± 4.5 J/K/mol
- molar heat capacity at constant pressure (338.16 K, x1 = 0.1547): 260.35 ± 4 J/K/mol
- molar heat capacity at constant pressure (338.16 K, x1 = 0.1999): 265.67 ± 4.1 J/K/mol
- molar heat capacity at constant pressure (338.16 K, x1 = 0.9609): 286.41 ± 4.4 J/K/mol
- molar heat capacity at constant pressure (339.14 K, x1 = 0.0061): 241 ± 3.7 J/K/mol
- molar heat capacity at constant pressure (339.14 K, x1 = 0.0249): 241.65 ± 3.7 J/K/mol
- molar heat capacity at constant pressure (339.14 K, x1 = 0.0494): 244.45 ± 3.8 J/K/mol
- molar heat capacity at constant pressure (339.14 K, x1 = 0.1): 252.62 ± 3.9 J/K/mol
- molar heat capacity at constant pressure (339.14 K, x1 = 0.1547): 260.43 ± 4 J/K/mol
- molar heat capacity at constant pressure (339.14 K, x1 = 0.1999): 265.8 ± 4.1 J/K/mol
- molar heat capacity at constant pressure (339.14 K, x1 = 0.2993): 274.34 ± 4.2 J/K/mol
- molar heat capacity at constant pressure (339.14 K, x1 = 0.4051): 280.35 ± 4.3 J/K/mol
- molar heat capacity at constant pressure (339.14 K, x1 = 0.4986): 284.12 ± 4.4 J/K/mol
- molar heat capacity at constant pressure (339.14 K, x1 = 0.5981): 286.77 ± 4.4 J/K/mol
- molar heat capacity at constant pressure (339.14 K, x1 = 0.7015): 288.43 ± 4.5 J/K/mol
- molar heat capacity at constant pressure (339.14 K, x1 = 0.8023): 288.55 ± 4.5 J/K/mol
- molar heat capacity at constant pressure (339.14 K, x1 = 0.9139): 287.89 ± 4.5 J/K/mol
- molar heat capacity at constant pressure (339.14 K, x1 = 0.9609): 287.02 ± 4.5 J/K/mol
- molar heat capacity at constant pressure (340.15 K, x1 = 0.0061): 241.53 ± 3.7 J/K/mol
- molar heat capacity at constant pressure (340.15 K, x1 = 0.0249): 242.15 ± 3.8 J/K/mol
- molar heat capacity at constant pressure (340.15 K, x1 = 0.0494): 244.83 ± 3.8 J/K/mol
- molar heat capacity at constant pressure (340.15 K, x1 = 0.1): 252.82 ± 3.9 J/K/mol
- molar heat capacity at constant pressure (340.15 K, x1 = 0.1547): 260.57 ± 4 J/K/mol
- molar heat capacity at constant pressure (340.15 K, x1 = 0.1999): 266.02 ± 4.1 J/K/mol
- molar heat capacity at constant pressure (340.15 K, x1 = 0.2993): 274.71 ± 4.3 J/K/mol
- molar heat capacity at constant pressure (340.15 K, x1 = 0.4051): 280.76 ± 4.3 J/K/mol
- molar heat capacity at constant pressure (340.15 K, x1 = 0.4986): 284.68 ± 4.4 J/K/mol
- molar heat capacity at constant pressure (340.15 K, x1 = 0.5981): 287.28 ± 4.5 J/K/mol
- molar heat capacity at constant pressure (340.15 K, x1 = 0.7015): 289.07 ± 4.5 J/K/mol
- molar heat capacity at constant pressure (340.15 K, x1 = 0.8023): 289.24 ± 4.5 J/K/mol
- molar heat capacity at constant pressure (340.15 K, x1 = 0.9139): 288.58 ± 4.5 J/K/mol
- molar heat capacity at constant pressure (340.15 K, x1 = 0.9609): 287.73 ± 4.5 J/K/mol
- molar heat capacity at constant pressure (341.14 K, x1 = 0.0249): 242.51 ± 3.8 J/K/mol
- molar heat capacity at constant pressure (341.14 K, x1 = 0.9139): 289.17 ± 4.5 J/K/mol
- molar heat capacity at constant pressure (341.16 K, x1 = 0.0061): 241.89 ± 3.8 J/K/mol
- molar heat capacity at constant pressure (341.16 K, x1 = 0.0494): 245.03 ± 3.8 J/K/mol
- molar heat capacity at constant pressure (341.16 K, x1 = 0.1): 252.79 ± 3.9 J/K/mol
- molar heat capacity at constant pressure (341.16 K, x1 = 0.1547): 260.64 ± 4 J/K/mol
- molar heat capacity at constant pressure (341.16 K, x1 = 0.1999): 266.06 ± 4.1 J/K/mol
- molar heat capacity at constant pressure (341.16 K, x1 = 0.2993): 274.84 ± 4.3 J/K/mol
- molar heat capacity at constant pressure (341.16 K, x1 = 0.4051): 281 ± 4.3 J/K/mol
- molar heat capacity at constant pressure (341.16 K, x1 = 0.4986): 284.87 ± 4.4 J/K/mol
- molar heat capacity at constant pressure (341.16 K, x1 = 0.5981): 287.66 ± 4.5 J/K/mol
- molar heat capacity at constant pressure (341.16 K, x1 = 0.7015): 289.5 ± 4.5 J/K/mol
- molar heat capacity at constant pressure (341.16 K, x1 = 0.8023): 289.74 ± 4.5 J/K/mol
- molar heat capacity at constant pressure (341.16 K, x1 = 0.9609): 288.3 ± 4.5 J/K/mol
- molar heat capacity at constant pressure (342.14 K, x1 = 0.0061): 242.38 ± 3.8 J/K/mol
- molar heat capacity at constant pressure (342.14 K, x1 = 0.0249): 242.91 ± 3.8 J/K/mol
- molar heat capacity at constant pressure (342.14 K, x1 = 0.0494): 245.35 ± 3.8 J/K/mol
- molar heat capacity at constant pressure (342.14 K, x1 = 0.1): 253 ± 3.9 J/K/mol
- molar heat capacity at constant pressure (342.14 K, x1 = 0.1547): 260.67 ± 4 J/K/mol
- molar heat capacity at constant pressure (342.14 K, x1 = 0.1999): 266.17 ± 4.1 J/K/mol
- molar heat capacity at constant pressure (342.14 K, x1 = 0.2993): 275.1 ± 4.3 J/K/mol
- molar heat capacity at constant pressure (342.14 K, x1 = 0.4051): 281.32 ± 4.4 J/K/mol
- molar heat capacity at constant pressure (342.14 K, x1 = 0.4986): 285.37 ± 4.4 J/K/mol
- molar heat capacity at constant pressure (342.14 K, x1 = 0.5981): 288.22 ± 4.5 J/K/mol
- molar heat capacity at constant pressure (342.14 K, x1 = 0.7015): 290.08 ± 4.5 J/K/mol
- molar heat capacity at constant pressure (342.14 K, x1 = 0.8023): 290.39 ± 4.5 J/K/mol
- molar heat capacity at constant pressure (342.14 K, x1 = 0.9139): 289.86 ± 4.5 J/K/mol
- molar heat capacity at constant pressure (342.14 K, x1 = 0.9609): 288.96 ± 4.5 J/K/mol
- molar heat capacity at constant pressure (343.15 K, x1 = 0.0061): 242.71 ± 3.8 J/K/mol
- molar heat capacity at constant pressure (343.15 K, x1 = 0.0249): 243.18 ± 3.8 J/K/mol
- molar heat capacity at constant pressure (343.15 K, x1 = 0.0494): 245.62 ± 3.8 J/K/mol
- molar heat capacity at constant pressure (343.15 K, x1 = 0.1): 253.03 ± 3.9 J/K/mol
- molar heat capacity at constant pressure (343.15 K, x1 = 0.1547): 260.73 ± 4 J/K/mol
- molar heat capacity at constant pressure (343.15 K, x1 = 0.1999): 266.34 ± 4.1 J/K/mol
- molar heat capacity at constant pressure (343.15 K, x1 = 0.2993): 275.23 ± 4.3 J/K/mol
- molar heat capacity at constant pressure (343.15 K, x1 = 0.4051): 281.6 ± 4.4 J/K/mol
- molar heat capacity at constant pressure (343.15 K, x1 = 0.4986): 285.7 ± 4.4 J/K/mol
- molar heat capacity at constant pressure (343.15 K, x1 = 0.5981): 288.61 ± 4.5 J/K/mol
- molar heat capacity at constant pressure (343.15 K, x1 = 0.7015): 290.51 ± 4.5 J/K/mol
- molar heat capacity at constant pressure (343.15 K, x1 = 0.8023): 290.89 ± 4.5 J/K/mol
- molar heat capacity at constant pressure (343.15 K, x1 = 0.9139): 290.38 ± 4.5 J/K/mol
- molar heat capacity at constant pressure (343.15 K, x1 = 0.9609): 289.53 ± 4.5 J/K/mol
- molar heat capacity at constant pressure (344.16 K, x1 = 0.0061): 243.26 ± 3.8 J/K/mol
- molar heat capacity at constant pressure (344.16 K, x1 = 0.0249): 243.63 ± 3.8 J/K/mol
- molar heat capacity at constant pressure (344.16 K, x1 = 0.0494): 245.97 ± 3.8 J/K/mol
- molar heat capacity at constant pressure (344.16 K, x1 = 0.1): 253.15 ± 3.9 J/K/mol
- molar heat capacity at constant pressure (344.16 K, x1 = 0.1547): 260.83 ± 4 J/K/mol
- molar heat capacity at constant pressure (344.16 K, x1 = 0.1999): 266.48 ± 4.1 J/K/mol
- molar heat capacity at constant pressure (344.16 K, x1 = 0.2993): 275.42 ± 4.3 J/K/mol
- molar heat capacity at constant pressure (344.16 K, x1 = 0.4051): 281.89 ± 4.4 J/K/mol
- molar heat capacity at constant pressure (344.16 K, x1 = 0.4986): 286.07 ± 4.4 J/K/mol
- molar heat capacity at constant pressure (344.16 K, x1 = 0.5981): 289.06 ± 4.5 J/K/mol
- molar heat capacity at constant pressure (344.16 K, x1 = 0.7015): 291.07 ± 4.5 J/K/mol
- molar heat capacity at constant pressure (344.16 K, x1 = 0.8023): 291.49 ± 4.5 J/K/mol
- molar heat capacity at constant pressure (344.16 K, x1 = 0.9139): 291.02 ± 4.5 J/K/mol
- molar heat capacity at constant pressure (344.16 K, x1 = 0.9609): 290.18 ± 4.5 J/K/mol
- molar heat capacity at constant pressure (345.14 K, x1 = 0.0061): 243.73 ± 3.8 J/K/mol
